These results are taken from patent publication US20080261978A1, “Chemokine receptor modulators” (priority 2007, published 2008).

The conditions of data set [1]: cited from earlier work.
The next data set concerns T-tropic HIV. As to the kind of experiment: Phenoscreen HIV cellular entry inhibition assay (Monogram Biosciences). The note with it: Human immunodeficiency virus 1, read-out: IC50 value for viral entry inhibition.

With `c1cc(CN2CCCNCCNCCCNCC2)ccc1CN1CCCNCCNCCCNCC1` [AMD3100], in data set [1], the “side effect in clinical study” value is reported as “cardiac-related side effect”.
For `O=S(=O)(NC1CCCc2ccccc21)c1ccc(CNCc2ccccn2)cc1` (centres unmarked) [DE, 4-((pyridin-2-ylmethylamino)methyl)-N-(1,2,3,4-tetrahydronaphthalen-1-yl)benzenesulfonamide], the concentration for half-maximal inhibition (IC50) (as a rule, the concentration needed to halve the response being measured) in the data set on T-tropic HIV was at most 10 µM.
On the same count and under the same terms, to `O=S(=O)(c1ccc(CNCc2ccccn2)cc1)N(Cc1ccccc1)Cc1nc2ccccc2[nH]1` [DH, N-((1H-benzo[d]imidazol-2-yl)methyl)-N-benzyl-4-((pyridin-2-ylmethylamino)methyl)benzenesulfonamide] belongs at most 10 µM; to `O=S(=O)(c1ccc(CNCCCN2CCOCC2)cc1)N(Cc1ccccc1)Cc1ccccc1` [DX, N,N-dibenzyl-4-((3-morpholinopropylamino)methyl)benzenesulfonamide], at most 10 µM; to `CCNCc1ccc(S(=O)(=O)N(Cc2ccccc2)Cc2ccccc2)cc1` [DZ, N,N-dibenzyl-4-((ethylamino)methyl)benzenesulfonamide], at most 10 µM.
